Measurements taken from ChEMBL document CHEMBL5154877, “Novel Sphingosine Kinase 1 Inhibitor Suppresses Growth of Solid Tumor and Inhibits the Lung Metastasis of Triple-Negative Breast Cancer” (J Med Chem, 2022).
pIC50: −log10 of the molar value. Active and inactive are the calls of the source. No cut-off for these calls is given here.

What was measured:
MDA-MB-231 [1] = experiment: Induction of apoptosis in human MDA-MB-231 cells assessed as late apoptotic cells at 30 uM incubated for 48 hrs by Annexin V-FITC/PI staining based flow cytometry (reference value: 1.96 %); assay type: functional
MDA-MB-231 [2] = experiment: Induction of apoptosis in human MDA-MB-231 cells assessed as early apoptotic cells at 30 uM incubated for 48 hrs by Annexin V-FITC/PI staining based flow cytometry (reference value: 2.35 %); assay type: functional
[3] = Toxicity in BALB/c mouse xenografted with human HT-29 cells assessed as change in body weight at 50 mg/kg/day, ip for 3 weeks and measured every 3 days; assay type: organism-based; conditions: in vivo, 504 h
MDA-MB-231 [4] = experiment: Induction of apoptosis in human MDA-MB-231 cells assessed as necrotic cells at 10 uM incubated for 48 hrs by Annexin V-FITC/PI staining based flow cytometry (reference value: 1.42 %); assay type: functional
[5] = Oral bioavailability in mouse at 20 mg/kg; assay type: ADME, organism-based; conditions: in vivo
[6] = Half life in mouse at 10 mg/kg, ip; assay type: ADME, organism-based; conditions: in vivo
[7] = Half life in mouse at 20 mg/kg, po; assay type: ADME, organism-based; conditions: in vivo
[8] = Toxicity in BALB/c mouse xenografted with human MDA-MB-231 cells assessed as body weight change at 100 mg/kg, ip administrated for 28 days; assay type: organism-based; conditions: in vivo, 672 h, time 28 day
MDA-MB-231 [9] = experiment: Induction of apoptosis in human MDA-MB-231 cells assessed as early apoptotic cells at 10 uM incubated for 48 hrs by Annexin V-FITC/PI staining based flow cytometry (reference value: 2.35 %); assay type: functional
HT-29 [10] = experiment: Induction of cell cycle arrest at G0/G1 phase in human HT-29 cells assessed as decrease in p-Rb expression at 10 to 30 uM incubated for 24 hrs by Western blot analysis; assay type: functional, cell-based; conditions: dose 10-30 µM
MDA-MB-231 [11] = experiment: Antimetastatic activity against human MDA-MB-231 cells […] assessed as upregulation of phosphorylated beta-catenin at 30 uM incubated for 2 to 12 hrs by western blot analysis; assay type: functional, cell-based; conditions: time 2-12 hrs
MDA-MB-231 [12] = experiment: Induction of apoptosis in human MDA-MB-231 cells assessed as viable cells at 10 uM incubated for 48 hrs by Annexin V-FITC/PI staining based flow cytometry (reference value: 94.3 %); assay type: functional; conditions: read-out: Activity
[13] = Cmax in mouse at 20 mg/kg, po; assay type: ADME, organism-based; parameters: dose 20 mg/kg, route po; conditions: in vivo
HT-29 [14] = experiment: Induction of cell cycle arrest at G0/G1 phase in human HT-29 cells assessed as reduction in cyclinA expression at 10 to 30 uM incubated for 24 hrs by Western blot analysis; assay type: functional, cell-based; conditions: dose 10-30 µM
[15] = Toxicity in BALB/c mouse xenografted with human MDA-MB-231 cells assessed as change in body weight at 50 mg/kg/day, ip for 3 weeks and measured every 3 days; assay type: organism-based; conditions: in vivo, 504 h
MDA-MB-231 [16] = experiment: Antimigratory activity against human MDA-MB-231 cells assessed as reduction in cell migration at 40 uM incubated for 8 hrs by crystal violet staining microscopy based transwell migration assay; assay type: functional
HT-29 [17] = experiment: Induction of cell cycle arrest in human HT-29 cells assessed as accumulation at G0/G1 phase at 10 uM incubated for 24 hrs by PI staining based flow cytometry; assay type: functional
HT-29 [18] = experiment: Induction of cell cycle arrest at G1 phase in human HT-29 cells assessed as increase in P21 expression at 30 uM incubated for 24 hrs by Western blot analysis; assay type: functional, cell-based
MDA-MB-231 [19] = experiment: Induction of apoptosis in human MDA-MB-231 cells assessed as necrotic cells at 30 uM incubated for 48 hrs by Annexin V-FITC/PI staining based flow cytometry (reference value: 1.42 %); assay type: functional
[20] = Half life in mouse at 2 mg/kg, iv; assay type: ADME, organism-based; conditions: in vivo
HT-29 [21] = experiment: Induction of cell cycle arrest at G0/G1 phase in human HT-29 cells assessed as reduction in cyclinE1 expression at 10 to 30 uM incubated for 24 hrs by Western blot analysis; assay type: functional, cell-based; conditions: dose 10-30 µM
MDA-MB-231 [22] = experiment: Antimetastatic activity against human MDA-MB-231 cells […] assessed as inhibition of FSCN1 phosphorylation at 30 uM incubated for 2 to 12 hrs by western blot analysis; assay type: functional, cell-based; conditions: time 2-12 hrs
HT-29 [23] = experiment: Antitumor activity against human HT-29 cells xenografted in BALB/c mouse assessed as tumor growth inhibition at 50 mg/kg/day, ip for 3 weeks and measured every 3 days by caliper method; assay type: functional, organism-based
[24] = Clearance in mouse at 2 mg/kg, iv; assay type: ADME, organism-based; conditions: in vivo
MDA-MB-231 [25] = experiment: Antimetastatic activity against human MDA-MB-231 cells […] assessed as inhibition of NF-kappaB p65 phosphorylation at 30 uM incubated for 2 to 12 hrs by Western blot analysis; assay type: functional, cell-based; conditions: time 2-12 hrs
MDA-MB-231 [26] = experiment: Induction of apoptosis in human MDA-MB-231 cells assessed as late apoptotic cells at 10 uM incubated for 48 hrs by Annexin V-FITC/PI staining based flow cytometry (reference value: 1.96 %); assay type: functional
HT-29 [27] = experiment: Induction of cell cycle arrest at G0/G1 phase in human HT-29 cells assessed as reduction in cyclinD1 expression at 10 to 30 uM incubated for 24 hrs by Western blot analysis; assay type: functional, cell-based; conditions: dose 10-30 µM
MDA-MB-231 [28] = experiment: Antimetastatic activity against human MDA-MB-231 cells xenografted in BALB/c mouse assessed as decrease in plasma S1P levels at 100 mg/kg, ip for 28 days; assay type: functional, organism-based; conditions: time 28.0 day
HT-29 [29] = experiment: Induction of cell cycle arrest at G0/G1 phase in human HT-29 cells assessed as reduction in CDK6 expression at 10 to 30 uM incubated for 24 hrs by Western blot analysis; assay type: functional, cell-based; conditions: dose 10-30 µM
MDA-MB-231 [30] = experiment: Antimigratory activity against human MDA-MB-231 cells assessed as inhibition of cell migration in human MDA-MB-231 cells at 40 uM incubated for 15 hrs by wound healing assay; assay type: functional, cell-based
[31] = Tmax in mouse at 20 mg/kg, po; assay type: ADME, organism-based; conditions: in vivo
MDA-MB-231 [32] = experiment: Induction of apoptosis in human MDA-MB-231 cells assessed as viable cells at 30 uM incubated for 48 hrs by Annexin V-FITC/PI staining based flow cytometry (reference value: 94.3 %); assay type: functional; conditions: read-out: Activity
[33] = AUClast in mouse at 20 mg/kg, po; assay type: ADME, organism-based; parameters: time 0 - last, dose 20 mg/kg, route po; conditions: in vivo
[34] = AUClast in mouse at 2 mg/kg, iv; assay type: ADME, organism-based; parameters: time 0 - last, dose 2 mg/kg, route iv; conditions: in vivo
MDA-MB-231 [35] = experiment: Antimetastatic activity against human MDA-MB-231 cells […] assessed as downregulation of MMP-9 at 30 uM incubated for 2 to 12 hrs by western blot analysis; assay type: functional, cell-based; conditions: time 2-12 hrs
Sphingosine kinase 2 = biological target: T1, Sphingosine kinase 2 (Homo sapiens, UniProt Q9NRA0)
T1 sequence (Q9NRA0 whole entry): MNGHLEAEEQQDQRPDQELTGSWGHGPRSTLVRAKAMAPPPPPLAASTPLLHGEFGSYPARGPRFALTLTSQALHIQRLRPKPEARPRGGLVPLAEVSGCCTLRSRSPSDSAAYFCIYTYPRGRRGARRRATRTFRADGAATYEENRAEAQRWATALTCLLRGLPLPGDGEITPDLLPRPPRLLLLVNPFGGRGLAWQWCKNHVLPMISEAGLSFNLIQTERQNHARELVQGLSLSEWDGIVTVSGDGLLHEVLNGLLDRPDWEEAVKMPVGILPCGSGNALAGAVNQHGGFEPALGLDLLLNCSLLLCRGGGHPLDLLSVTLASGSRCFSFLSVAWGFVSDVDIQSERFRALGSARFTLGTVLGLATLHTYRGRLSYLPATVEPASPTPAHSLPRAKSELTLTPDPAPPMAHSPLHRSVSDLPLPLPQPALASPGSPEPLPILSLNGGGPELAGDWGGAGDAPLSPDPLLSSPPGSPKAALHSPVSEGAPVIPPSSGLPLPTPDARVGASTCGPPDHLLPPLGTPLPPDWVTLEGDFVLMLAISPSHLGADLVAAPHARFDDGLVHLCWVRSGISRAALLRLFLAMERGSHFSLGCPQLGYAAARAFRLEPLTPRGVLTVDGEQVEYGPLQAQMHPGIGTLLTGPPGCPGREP

Question: Which Activity (MDA-MB-231 [1]) does the source give for `Cc1cc(CS(=O)(=O)c2ccccc2)cc(OCc2ccc(CN3CCC[C@@H]3CO)cc2)c1` here?
Answer: The Activity was 7.47%.

Question: And the Activity (MDA-MB-231 [2])?
Answer: Its Activity is 25.2%.

Question: And the Activity [3]?
Answer: The Activity was “Non-Toxic”.

Question: What about the Activity (MDA-MB-231 [4]) of the same compound?
Answer: Its Activity is 2.22%.

Question: And the bioavailability [5]?
Answer: Its bioavailability is 1.92%.

Question: What about the half-life [6] of the same compound?
Answer: Its half-life is 72 min.

Question: And the half-life [7]?
Answer: The half-life was 258 min.

Question: And the Activity [8]?
Answer: Its Activity is “Non-Toxic”.

Question: What about the Activity (MDA-MB-231 [9]) of the same compound?
Answer: Its Activity is 4.89%.

Question: And the Activity (HT-29 [10])?
Answer: The Activity was “Active”.

Question: And the Activity (MDA-MB-231 [11])?
Answer: The Activity was “Active”.

Question: What about the viability at 10 µM (MDA-MB-231 [12]) of the same compound?
Answer: The viability at 10 µM was 85.8%.

Question: What about the Cmax [13] of the same compound?
Answer: The Cmax was 16.8 ng/mL.

Question: And the Activity (HT-29 [14])?
Answer: The Activity was “Active”.

Question: And the Activity [15]?
Answer: The Activity was “Non-Toxic”.

Question: What about the Activity (MDA-MB-231 [16]) of the same compound?
Answer: Its Activity is “Active”.

Question: What about the Activity (HT-29 [17]) of the same compound?
Answer: Its Activity is “Active”.

Question: What about the Activity (HT-29 [18]) of the same compound?
Answer: Its Activity is “Active”.

Question: And the Activity (MDA-MB-231 [19])?
Answer: Its Activity is 1.99%.

Question: What about the half-life [20] of the same compound?
Answer: Its half-life is 60.6 min.

Question: What about the Activity (HT-29 [21]) of the same compound?
Answer: The Activity was “Active”.

Question: And the Activity (MDA-MB-231 [22])?
Answer: Its Activity is “Active”.

Question: And the Activity (HT-29 [23])?
Answer: The Activity was “Active”.

Question: And the clearance [24]?
Answer: The clearance was 207 mL/min/kg.

Question: And the Activity (MDA-MB-231 [25])?
Answer: Its Activity is “Active”.

Question: What about the Activity (MDA-MB-231 [26]) of the same compound?
Answer: The Activity was 7.11%.

Question: And the Activity (HT-29 [27])?
Answer: Its Activity is “Active”.

Question: And the Activity (MDA-MB-231 [28])?
Answer: Its Activity is “Active”.

Question: What about the Activity (HT-29 [29]) of the same compound?
Answer: Its Activity is “Active”.

Question: What about the Activity (MDA-MB-231 [30]) of the same compound?
Answer: Its Activity is “Active”.

Question: What about the Tmax [31] of the same compound?
Answer: The Tmax was 15 min.

Question: And the viability at 30 µM (MDA-MB-231 [32])?
Answer: Its viability at 30 µM is 65.4%.

Question: And the AUC(0-t) [33]?
Answer: Its AUC(0-t) is 32.3 ng·h/mL.

Question: And the AUC(0-t) [34]?
Answer: Its AUC(0-t) is 168 ng·h/mL.

Question: What about the Activity (MDA-MB-231 [35]) of the same compound?
Answer: Its Activity is “Active”.

Question: With `Cc1cc(CS(=O)(=O)c2ccccc2)cc(OCc2ccc(CN(C)CCO)cc2)c1` as the compound, how does the pIC50 (Sphingosine kinase 2) read?
Answer: Its pIC50 is < 5.00.

Question: With `Cc1cc(CS(=O)(=O)c2ccccc2)cc(OCCCCCCCN2CCC[C@@H]2CO)c1` as the compound, how does the pIC50 (Sphingosine kinase 2) read?
Answer: The pIC50 was < 5.00.

Question: With `Cc1cc(CS(=O)(=O)c2ccc([N+](=O)[O-])cc2)cc(OCc2ccc(CN3CCC[C@@H]3CO)cc2)c1` as the compound, how does the pIC50 (Sphingosine kinase 2) read?
Answer: Its pIC50 is < 5.00.
